{"source": "patent US20250282794A1", "about": "(CURADEV PHARMA LTD, priority 2022, published 2025)", "note": "Where a name gives a salt, the structure may show the parent alone."}
{"target": "recombinant full length HPK-1 enzyme (Homo sapiens (Human), UniProt Q92918)", "sequence (Q92918 whole entry, species assumed)": "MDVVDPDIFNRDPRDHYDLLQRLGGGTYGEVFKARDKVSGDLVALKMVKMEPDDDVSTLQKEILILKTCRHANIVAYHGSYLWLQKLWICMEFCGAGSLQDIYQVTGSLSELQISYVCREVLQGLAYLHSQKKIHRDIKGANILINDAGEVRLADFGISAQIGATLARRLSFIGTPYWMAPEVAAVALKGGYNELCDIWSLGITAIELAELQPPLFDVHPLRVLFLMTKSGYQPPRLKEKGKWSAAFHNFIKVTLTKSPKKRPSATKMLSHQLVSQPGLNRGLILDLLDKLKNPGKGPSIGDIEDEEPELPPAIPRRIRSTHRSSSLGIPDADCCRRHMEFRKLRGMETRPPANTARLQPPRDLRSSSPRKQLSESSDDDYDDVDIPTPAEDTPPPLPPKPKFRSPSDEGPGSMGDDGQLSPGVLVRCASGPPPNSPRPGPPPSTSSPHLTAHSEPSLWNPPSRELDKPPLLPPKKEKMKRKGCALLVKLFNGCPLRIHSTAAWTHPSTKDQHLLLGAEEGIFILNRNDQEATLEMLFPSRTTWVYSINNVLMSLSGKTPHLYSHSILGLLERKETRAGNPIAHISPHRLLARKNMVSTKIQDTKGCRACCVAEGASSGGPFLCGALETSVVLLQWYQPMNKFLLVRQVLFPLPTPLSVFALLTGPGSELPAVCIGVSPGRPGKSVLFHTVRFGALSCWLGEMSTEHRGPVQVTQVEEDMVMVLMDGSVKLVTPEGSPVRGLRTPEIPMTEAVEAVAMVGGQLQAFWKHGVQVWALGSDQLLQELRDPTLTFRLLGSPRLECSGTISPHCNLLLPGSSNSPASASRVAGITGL", "assay": "HPK-1 biochemical enzyme assay (ADP-Glo kinase inhibition)", "conditions": "recombinant full length HPK-1 6.8 nM, 10 μM ATP, 12.5 μM MBP, 30 mins at 25° C.", "experimental": "HPK-1 biochemical enzyme assay\nCompound inhibitory potency was measured in an HPK-1 kinase inhibition assay. Briefly, recombinant full length HPK-1 enzyme (6.8 nM) was incubated with 10 μM ATP and 12.5 μM swine myelin basic protein (MBP) for 30 mins. at 25° C. in the presence of various concentrations of test compound or vehicle in 40 mM Tris.Cl pH7.4 buffer containing 20 mM MgCl2, 50 μM DTT and 0.1 mg/mL BSA. Reactions were quenched and reaction mixtures were then analyzed by an ADP-Glo kit which measures the formed ADP. The percent inhibition was calculated from the substrate conversion considering no enzyme control reactions for 100% inhibition and vehicle only reactions for 0% inhibition. The compounds were dissolved in DMSO and evaluated at 10 concentrations to determine an IC50 value.\nIn the below table A denotes an HPK-1 IC50≤10 nM, B denotes an HPK-1 IC50>10 nM but≤100 nM and C denotes an HPK-1 IC50>100 nM but≤1000 nM.", "units": {"IC50": "nM"}}
{"compound": "Cc1c(Nc2cc[nH]c(=O)c2C(=O)Nc2ccc(N3CCN(C)CC3)cc2)cnc2c1NCCO2", "note": "[Example 45, 4-((8-Methyl-2,3-dihydro-1H-pyrido[2,3-b][1,4]oxazin-7-yl)amino)-N-(4-(4-methylpiperazin-1-yl)phenyl)-2-oxo-1,2-dihydropyridine-3-carboxamide]", "IC50": "≤ 10"}
{"compound": "Cc1c(Nc2cc[nH]c(=O)c2C(=O)Nc2ccc(N3CCN(C)CC3)cc2)cnc2c1N(C)CCO2", "note": "[Example 93, 4-((1,8-dimethyl-2,3-dihydro-1H-pyrido[2,3-b][1,4]oxazin-7-yl)amino)-N-(4-(4-methylpiperazin-1-yl)phenyl)-2-oxo-1,2-dihydropyridine-3-carboxamide]", "IC50": "10 to 100"}
{"compound": "Cc1c(Nc2cc[nH]c(=O)c2C(=O)Nc2ccc(N3CCN(C)CC3)c(F)c2)cnc2c1NCCO2", "note": "[Example 96, N-(3-fluoro-4-(4-methylpiperazin-1-yl)phenyl)-4-((8-methyl-2,3-dihydro-1H-pyrido[2,3-b][1,4]oxazin-7-yl)amino)-2-oxo-1,2-dihydropyridine-3-carboxamide]", "IC50": "≤ 10"}
{"compound": "Cc1c(Nc2cc[nH]c(=O)c2C(=O)Nc2ccc(C3CCN(C)CC3)cc2)cnc2c1NCCO2", "note": "[Example 97, 4-((8-methyl-2,3-dihydro-1H-pyrido[2,3-b][1,4]oxazin-7-yl)amino)-N-(4-(1-methylpiperidin-4-yl)phenyl)-2-oxo-1,2-dihydropyridine-3-carboxamide]", "IC50": "≤ 10"}
{"compound": "Cc1c(Nc2nc[nH]c(=O)c2C(=O)Nc2ccc(N3CCN(C)CC3)cc2)cnc2c1NCCO2", "note": "[Example 98, 4-((8-Methyl-2,3-dihydro-1H-pyrido[2,3-b][1,4]oxazin-7-yl)amino)-N-(4-(4-methylpiperazin-1-yl)phenyl)-6-oxo-1,6-dihydropyrimidine-5-carboxamide]", "IC50": "10 to 100"}
{"compound": "Cc1c(Nc2cc[nH]c(=O)c2C(=O)Nc2ccc(N3CCN(CCO)CC3)cc2)cnc2c1NCCO2", "note": "[Example 105, N-(4-(4-(2-hydroxyethyl)piperazin-1-yl)phenyl)-4-((8-methyl-2,3-dihydro-1H-pyrido[2,3-b][1,4]oxazin-7-yl)amino)-2-oxo-1,2-dihydropyridine-3-carboxamide]", "IC50": "≤ 10"}
{"compound": "Cc1c(Nc2cc[nH]c(=O)c2C(=O)Nc2ccc(N3CCN(C(C)C)CC3)cc2)cnc2c1NCCO2", "note": "[Example 106, N-(4-(4-isopropylpiperazin-1-yl)phenyl)-4-((8-methyl-2,3-dihydro-1H-pyrido[2,3-b][1,4]oxazin-7-yl)amino)-2-oxo-1,2-dihydropyridine-3-carboxamide]", "IC50": "≤ 10"}
{"compound": "CN1CCN(c2ccc(NC(=O)c3c(Nc4cnc5c(c4)NCCO5)cc[nH]c3=O)cc2)CC1", "note": "[Example 115, 4-((2,3-dihydro-1H-pyrido[2,3-b][1,4]oxazin-7-yl)amino)-N-(4-(4-methylpiperazin-1-yl)phenyl)-2-oxo-1,2-dihydropyridine-3-carboxamide.TFA]", "IC50": "10 to 100"}
{"compound": "CN1CCN(c2ccc(NC(=O)c3c(Nc4cnc5c(c4)N(C)CCO5)cc[nH]c3=O)cc2)CC1", "note": "[Example 118, 4-((1-methyl-2,3-dihydro-1H-pyrido[2,3-b][1,4]oxazin-7-yl)amino)-N-(4-(4-methylpiperazin-1-yl)phenyl)-2-oxo-1,2-dihydropyridine-3-carboxamide]", "IC50": "10 to 100"}
{"compound": "Cc1c(Nc2cc[nH]c(=O)c2C(=O)Nc2ccc(N3CCN(C)CC3)cc2)cnc2c1NCC(C)O2", "note": "(centres unmarked) [Example 125, 4-((3,8-dimethyl-2,3-dihydro-1H-pyrido[2,3-b][1,4]oxazin-7-yl)amino)-N-(4-(4-methylpiperazin-1-yl)phenyl)-2-oxo-1,2-dihydropyridine-3-carboxamide]", "IC50": "10 to 100"}
{"compound": "Cc1c(Nc2cc[nH]c(=O)c2C(=O)Nc2ccc(N3CCN(C)CC3)cc2)cnc2c1NC(=O)CO2", "note": "[Example 126, 4-((8-methyl-2-oxo-2,3-dihydro-1H-pyrido[2,3-b][1,4]oxazin-7-yl)amino)-N-(4-(4-methylpiperazin-1-yl)phenyl)-2-oxo-1,2-dihydropyridine-3-carboxamide]", "IC50": "10 to 100"}
{"compound": "Cc1c(Nc2cc[nH]c(=O)c2C(=O)Nc2ccc(-c3ccccn3)cc2)cnc2c1NCCO2", "note": "[Example 130, 4-((8-methyl-2,3-dihydro-1H-pyrido[2,3-b][1,4]oxazin-7-yl)amino)-2-oxo-N-(4-(pyridin-2-yl)phenyl)-1,2-dihydropyridine-3-carboxamide]", "IC50": "10 to 100"}
{"compound": "COc1c(Nc2cc[nH]c(=O)c2C(=O)Nc2ccc(N3CCN(C)CC3)cc2)cnc2c1NCCO2", "note": "[Example 132, 4-((8-Methoxy-2,3-dihydro-1H-pyrido[2,3-b][1,4]oxazin-7-yl)amino)-N-(4-(4-methylpiperazin-1-yl)phenyl)-2-oxo-1,2-dihydropyridine-3-carboxamide]", "IC50": "10 to 100"}
{"compound": "Cc1c(Nc2cc[nH]c(=O)c2C(=O)Nc2ccc(C3CCOCC3)cc2)cnc2c1NCCO2", "note": "[Example 133, 4-((8-methyl-2,3-dihydro-1H-pyrido[2,3-b][1,4]oxazin-7-yl)amino)-2-oxo-N-(4-(tetrahydro-2H-pyran-4-yl)phenyl)-1,2-dihydropyridine-3-carboxamide]", "IC50": "10 to 100"}
{"compound": "Cc1c(Nc2cc[nH]c(=O)c2C(=O)Nc2ccc(N3CCN(C(C)C)CC3)c(F)c2)cnc2c1NCCO2", "note": "[Example 134, N-(3-fluoro-4-(4-isopropylpiperazin-1-yl)phenyl)-4-((8-methyl-2,3-dihydro-1H-pyrido[2,3-b][1,4]oxazin-7-yl)amino)-2-oxo-1,2-dihydropyridine-3-carboxamide]", "IC50": "≤ 10"}
{"compound": "CCN1CCN(c2ccc(NC(=O)c3c(Nc4cnc5c(c4C)NCCO5)cc[nH]c3=O)cc2F)CC1", "note": "[Example 135, N-(4-(4-ethylpiperazin-1-yl)-3-fluorophenyl)-4-((8-methyl-2,3-dihydro-1H-pyrido[2,3-b][1,4]oxazin-7-yl)amino)-2-oxo-1,2-dihydropyridine-3-carboxamide]", "IC50": "≤ 10"}
{"compound": "CCN1CCN(c2ccc(NC(=O)c3c(Nc4cnc5c(c4C)NCCO5)cc[nH]c3=O)cc2)CC1", "note": "[Example 136, N-(4-(4-ethylpiperazin-1-yl)phenyl)-4-((8-methyl-2,3-dihydro-1H-pyrido[2,3-b][1,4]oxazin-7-yl)amino)-2-oxo-1,2-dihydropyridine-3-carboxamide]", "IC50": "≤ 10"}
{"compound": "Cc1c(Nc2cc[nH]c(=O)c2C(=O)Nc2ccc(N3CCN(C(=O)N(C)C)CC3)cc2)cnc2c1NCCO2", "note": "[Example 137, N,N-Dimethyl-4-(4-(4-((8-methyl-2,3-dihydro-1H-pyrido[2,3-b][1,4]oxazin-7-yl)amino)-2-oxo-1,2-dihydropyridine-3-carboxamido)phenyl) piperazine-1-carboxamide]", "IC50": "≤ 10"}
{"compound": "Cc1c(Nc2cc[nH]c(=O)c2C(=O)Nc2ccc(N3CCS(=O)(=O)CC3)cc2)cnc2c1NCCO2", "note": "[Example 138, N-(4-(1,1-dioxidothiomorpholino)phenyl)-4-((8-methyl-2,3-dihydro-1H-pyrido[2,3-b][1,4]oxazin-7-yl)amino)-2-oxo-1,2-dihydropyridine-3-carboxamide]", "IC50": "≤ 10"}
{"compound": "Cc1c(Nc2cc[nH]c(=O)c2C(=O)Nc2ccc(N3CCNCC3)cc2)cnc2c1NCCO2", "note": "[Example 139, 4-((8-methyl-2,3-dihydro-1H-pyrido[2,3-b][1,4]oxazin-7-yl)amino)-2-oxo-N-(4-(piperazin-1-yl)phenyl)-1,2-dihydropyridine-3-carboxamide]", "IC50": "≤ 10"}
{"compound": "COCCN1CCN(c2ccc(NC(=O)c3c(Nc4cnc5c(c4C)NCCO5)cc[nH]c3=O)cc2)CC1", "note": "[Example 140, N-(4-(4-(2-methoxyethyl)piperazin-1-yl)phenyl)-4-((8-methyl-2,3-dihydro-1H-pyrido[2,3-b][1,4]oxazin-7-yl)amino)-2-oxo-1,2-dihydropyridine-3-carboxamide]", "IC50": "≤ 10"}
{"compound": "Cc1c(Nc2cc[nH]c(=O)c2C(=O)Nc2ccc(N3CCN(C(=O)N4CCC(F)(F)C4)CC3)cc2)cnc2c1NCCO2", "note": "[Example 143, N-(4-(4-(3,3-difluoropyrrolidine-1-carbonyl)piperazin-1-yl)phenyl)-4-((8-methyl-2,3-dihydro-1H-pyrido[2,3-b][1,4]oxazin-7-yl)amino)-2-oxo-1,2-dihydropyridine-3-carboxamide]", "IC50": "≤ 10"}
{"compound": "Cc1c(Nc2cc[nH]c(=O)c2C(=O)Nc2ccc(-c3cn[nH]c3)cc2)cnc2c1NCCO2", "note": "[Example 144, N-(4-(1H-pyrazol-4-yl)phenyl)-4-((8-methyl-2,3-dihydro-1H-pyrido[2,3-b][1,4]oxazin-7-yl)amino)-2-oxo-1,2-dihydropyridine-3-carboxamide]", "IC50": "10 to 100"}
{"compound": "Cc1c(Nc2cc[nH]c(=O)c2C(=O)Nc2ccc(-c3cc[nH]n3)cc2)cnc2c1NCCO2", "note": "[Example 145, N-(4-(1H-pyrazol-3-yl)phenyl)-4-((8-methyl-2,3-dihydro-1H-pyrido[2,3-b][1,4]oxazin-7-yl)amino)-2-oxo-1,2-dihydropyridine-3-carboxamide]", "IC50": "10 to 100"}
{"compound": "Cc1c(Nc2cc[nH]c(=O)c2C(=O)Nc2ccc(-c3cnco3)cc2)cnc2c1NCCO2", "note": "[Example 146, 4-((8-methyl-2,3-dihydro-1H-pyrido[2,3-b][1,4]oxazin-7-yl)amino)-N-(4-(oxazol-5-yl)phenyl)-2-oxo-1,2-dihydropyridine-3-carboxamide]", "IC50": "10 to 100"}
{"compound": "Cc1c(Nc2cc[nH]c(=O)c2C(=O)Nc2ccc(N3CCN(C4CCCC4)CC3)cc2)cnc2c1NCCO2", "note": "[Example 147, N-(4-(4-cyclopentylpiperazin-1-yl)phenyl)-4-((8-methyl-2,3-dihydro-1H-pyrido[2,3-b][1,4]oxazin-7-yl)amino)-2-oxo-1,2-dihydropyridine-3-carboxamide]", "IC50": "≤ 10"}
